This is an account of results in patent publication US11261201B2 (priority 2018, dated 2022).

≈ marks a conversion by molar mass, not a printed value. Where two headings read alike, the source gives them in different places.

The test system of one assay is H37RvMA. The assay is described as follows: Tuberculosis Alamar Blue/Resazurin assay (MIC). The note with it: Mycobacterium tuberculosis, H37RV, read-out: WT H37Rv MTB Activity. The class given is cell-based.
A further assay deals with E. coli. The assay is described as follows: Gram negative MIC protocol (OD600, LB, 24 h). Particulars: Escherichia coli.
A further assay has as its system A. baumannii. Description: Gram negative MIC protocol (OD600, LB, 24 h). Particulars: Acinetobacter baumannii, read-out: MIC A. baumannii LB Media.
For a further assay, the system named is E. coli K-12. The assay is described as follows: Resistance development on LB-agar plates, combination therapy. Particulars: B1 in combination with anti-LeuS Tavaborole, adjusted for dose equivalence; 10^8 cells plated, 37° C., 24 hours; multiple independent experiments (FIG. 1).

Description for A. baumannii: Overnight bacterial cultures were grown in LB with no added antibiotics at 37° C. with shaking. A 1:1000 dilution of these cultures into LB was exposed to concentration gradients of compounds in 96-well plates (100 μL per well assay volume). Resulting plates were incubated at 37° C. for 24 h without shaking, and OD600 was measured at the end of the incubation. MICs were determined as the lowest concentrations at which OD600 remained at baseline.
Description for E. coli K-12: Experimental details: Cultures of E. coli K-12 were started from single colonies on LB-agar plates and were grown in LB for 36 hours with shaking at 37° C. Following that, 10^8 cells were plated on LB-agar plates containing B1 or Tavaborole alone or in combination adjusted for dose equivalence and incubated at 37° C. for 24 hours.

For the compound `C1=C(CCNCc2ccccc2)CCCC1` [B1, N-benzyl-2-(cyclohex-1-en-1-yl)ethan-1-amine], the MIC in the assay on H37RvMA is more than 150 µM; in the assay on E. coli (read-out: MIC E. coli delta-TolC LB Media, E. coli delta-TolC, LB media, OD600), 46 µM (≈ 9.91 µg/mL); in the assay with E. coli (read-out: MIC WT E. coli LB Media, WT E. coli, LB media, OD600), 60 µM (≈ 12.9 µg/mL); in the assay on A. baumannii, 150 µM (≈ 32.3 µg/mL). Further, the development of resistance result in the assay on E. coli K-12 is “did not develop resistance”.
